Laboratory results from patent US5981562A, “Inhibitors of farnesyl-protein transferase” (Merck & Co., Inc., priority 1997, dated 1999).
Counter-ions that a name gives are not always drawn.

Target: T1, human FPTase (Homo sapiens, UniProt P49354+P49356)
T1 construct: made in house
Assay: In vitro inhibition of human farnesyl-protein transferase
Type: biochemical
Settings: [3H]-FPP, 100 nM Ras-CVIM, 30 min, read-out: IC50 against human FPTase

- IC50: < 10 µM
Compound: CC(=O)N(CCNc1cccc(Cl)c1)Cc1cncn1Cc1ccc(C#N)cc1 [Example 1, N-[1-(4-cyanobenzyl)-5-imidazolylmethyl]-N-[2-((3-chlorophenyl)amino)ethyl]acetamide dihydrochloride]
